Data from PubChem BioAssay (NCI).
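Dose response: 5 concentrations. Exposure: 48 h. Format: 96-well plates. Endpoint: linear interpolation; highest concentration if not reached. Here, GI50 denotes the concentration required for 50% inhibition of growth. TGI denotes the concentration required for complete inhibition of growth.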

What was measured:
Assay in all cases: growth of human tumour cells (NCI), 48 h
786-0 renal = tested on: 786-0 renal
A498 renal = tested on: A498 renal
A549 NSCLC = tested on: A549 NSCLC
ACHN renal = tested on: ACHN renal
BT-549 breast = tested on: BT-549 breast
CAKI-1 renal = tested on: CAKI-1 renal
COLO 205 colon = tested on: COLO 205 colon
DU-145 prostate = tested on: DU-145 prostate
EKVX NSCLC = tested on: EKVX NSCLC
HCC-2998 colon = tested on: HCC-2998 colon
HCT-116 colon = tested on: HCT-116 colon
HCT-15 colon = tested on: HCT-15 colon
HOP-62 NSCLC = tested on: HOP-62 NSCLC
HOP-92 NSCLC = tested on: HOP-92 NSCLC
HS 578T breast = tested on: HS 578T breast
HT29 colon = tested on: HT29 colon
IGROV1 ovarian = tested on: IGROV1 ovarian
K-562 leukemia = tested on: K-562 leukemia
KM12 colon = tested on: KM12 colon
LOX IMVI melanoma = tested on: LOX IMVI melanoma
M14 melanoma = tested on: M14 melanoma
MALME-3M melanoma = tested on: MALME-3M melanoma
MCF7 breast = tested on: MCF7 breast
MDA-MB-231 breast = tested on: MDA-MB-231 breast
MDA-MB-435 = tested on: MDA-MB-435
MOLT-4 leukemia = tested on: MOLT-4 leukemia
NCI-H226 lung = tested on: NCI-H226 lung
NCI-H23 lung = tested on: NCI-H23 lung
NCI-H460 lung = tested on: NCI-H460 lung
NCI-H522 lung = tested on: NCI-H522 lung
NCI/ADR-RES ovarian = tested on: NCI/ADR-RES ovarian
OVCAR-3 ovarian = tested on: OVCAR-3 ovarian
OVCAR-4 ovarian = tested on: OVCAR-4 ovarian
OVCAR-5 ovarian = tested on: OVCAR-5 ovarian
OVCAR-8 ovarian = tested on: OVCAR-8 ovarian
PC-3 prostate = tested on: PC-3 prostate
RPMI-8226 leukemia = tested on: RPMI-8226 leukemia
RXF 393 renal = tested on: RXF 393 renal
SF-268 CNS = tested on: SF-268 CNS
SF-295 CNS = tested on: SF-295 CNS
SF-539 CNS = tested on: SF-539 CNS
SK-MEL-2 melanoma = tested on: SK-MEL-2 melanoma
SK-MEL-28 melanoma = tested on: SK-MEL-28 melanoma
SK-MEL-5 melanoma = tested on: SK-MEL-5 melanoma
SK-OV-3 ovarian = tested on: SK-OV-3 ovarian
SN12C renal = tested on: SN12C renal
SNB-19 CNS = tested on: SNB-19 CNS
SW-620 colon = tested on: SW-620 colon
T-47D breast = tested on: T-47D breast
TK-10 renal = tested on: TK-10 renal
U251 CNS = tested on: U251 CNS
UACC-257 melanoma = tested on: UACC-257 melanoma
UACC-62 melanoma = tested on: UACC-62 melanoma
UO-31 renal = tested on: UO-31 renal
CCRF-CEM leukemia = tested on: CCRF-CEM leukemia
HL-60(TB) leukemia = tested on: HL-60(TB) leukemia
SNB-75 CNS = tested on: SNB-75 CNS

Structure (SMILES): C=C1C(=O)O[C@H]2[C@H]1CC/C(COC(=O)NCc1ccc(Cn3c(=O)sn(CCI)c3=O)cc1)=C\CC[C@@]1(C)O[C@@H]21
- GI50 (786-0 renal): 1.82 µM
- TGI (786-0 renal): 3.36 µM
- GI50 (A498 renal): 4.44 µM
- TGI (A498 renal): 20 µM
- GI50 (A549 NSCLC): 16.6 µM
- TGI (A549 NSCLC): 32.4 µM
- GI50 (ACHN renal): 1.89 µM
- TGI (ACHN renal): 3.37 µM
- GI50 (BT-549 breast): 2.4 µM
- TGI (BT-549 breast): 6.08 µM
- GI50 (CAKI-1 renal): 3.79 µM
- TGI (CAKI-1 renal): 14 µM
- GI50 (COLO 205 colon): 1.86 µM
- TGI (COLO 205 colon): 3.55 µM
- GI50 (DU-145 prostate): 1.82 µM
- TGI (DU-145 prostate): 3.29 µM
- GI50 (EKVX NSCLC): 2.11 µM
- TGI (EKVX NSCLC): 5.58 µM
- GI50 (HCC-2998 colon): 10.4 µM
- TGI (HCC-2998 colon): 22.5 µM
- GI50 (HCT-116 colon): 1.76 µM
- TGI (HCT-116 colon): 3.27 µM
- GI50 (HCT-15 colon): 1.91 µM
- TGI (HCT-15 colon): 4.1 µM
- GI50 (HOP-62 NSCLC): 11.7 µM
- TGI (HOP-62 NSCLC): 24.2 µM
- GI50 (HOP-92 NSCLC): 1.38 µM
- TGI (HOP-92 NSCLC): 2.76 µM
- GI50 (HS 578T breast): 7.29 µM
- TGI (HS 578T breast): 42.4 µM
- GI50 (HT29 colon): 2.1 µM
- TGI (HT29 colon): 4.05 µM
- GI50 (IGROV1 ovarian): 2.08 µM
- TGI (IGROV1 ovarian): 4.07 µM
- GI50 (K-562 leukemia): 0.655 µM
- TGI (K-562 leukemia): > 100 µM
- GI50 (KM12 colon): 8.15 µM
- TGI (KM12 colon): 23.1 µM
- GI50 (LOX IMVI melanoma): 1.69 µM
- TGI (LOX IMVI melanoma): 3.11 µM
- GI50 (M14 melanoma): 1.82 µM
- TGI (M14 melanoma): 3.59 µM
- GI50 (MALME-3M melanoma): 1.68 µM
- TGI (MALME-3M melanoma): 3.4 µM
- GI50 (MCF7 breast): 1.71 µM
- TGI (MCF7 breast): 3.64 µM
- GI50 (MDA-MB-231 breast): 1.77 µM
- TGI (MDA-MB-231 breast): 3.31 µM
- GI50 (MDA-MB-435): 2.45 µM
- TGI (MDA-MB-435): 6.62 µM
- GI50 (MOLT-4 leukemia): 1.35 µM
- TGI (MOLT-4 leukemia): 5.35 µM
- GI50 (NCI-H226 lung): 15.1 µM
- TGI (NCI-H226 lung): 33.1 µM
- GI50 (NCI-H23 lung): 3.46 µM
- TGI (NCI-H23 lung): 13.6 µM
- GI50 (NCI-H460 lung): 6.42 µM
- TGI (NCI-H460 lung): 22.7 µM
- GI50 (NCI-H522 lung): 1.72 µM
- TGI (NCI-H522 lung): 3.36 µM
- GI50 (NCI/ADR-RES ovarian): 20.3 µM
- TGI (NCI/ADR-RES ovarian): 47.2 µM
- GI50 (OVCAR-3 ovarian): 1.64 µM
- TGI (OVCAR-3 ovarian): 3.05 µM
- GI50 (OVCAR-4 ovarian): 2.02 µM
- TGI (OVCAR-4 ovarian): 4.19 µM
- GI50 (OVCAR-5 ovarian): 3.27 µM
- TGI (OVCAR-5 ovarian): 10.1 µM
- GI50 (OVCAR-8 ovarian): 4.55 µM
- TGI (OVCAR-8 ovarian): 18.9 µM
- GI50 (PC-3 prostate): 1.75 µM
- TGI (PC-3 prostate): 3.33 µM
- GI50 (RPMI-8226 leukemia): 1.98 µM
- TGI (RPMI-8226 leukemia): 5.11 µM
- GI50 (RXF 393 renal): 1.61 µM
- TGI (RXF 393 renal): 3.13 µM
- GI50 (SF-268 CNS): 2.41 µM
- TGI (SF-268 CNS): 6.26 µM
- GI50 (SF-295 CNS): 13.6 µM
- TGI (SF-295 CNS): 27.1 µM
- GI50 (SF-539 CNS): 1.72 µM
- TGI (SF-539 CNS): 3.18 µM
- GI50 (SK-MEL-2 melanoma): 11.7 µM
- TGI (SK-MEL-2 melanoma): 26.2 µM
- GI50 (SK-MEL-28 melanoma): 2.06 µM
- TGI (SK-MEL-28 melanoma): 3.74 µM
- GI50 (SK-MEL-5 melanoma): 5.37 µM
- TGI (SK-MEL-5 melanoma): 17.9 µM
- GI50 (SK-OV-3 ovarian): 15.2 µM
- TGI (SK-OV-3 ovarian): 28.5 µM
- GI50 (SN12C renal): 2.16 µM
- TGI (SN12C renal): 5.38 µM
- GI50 (SNB-19 CNS): 6.88 µM
- TGI (SNB-19 CNS): 19.9 µM
- GI50 (SW-620 colon): 1.66 µM
- TGI (SW-620 colon): 3.25 µM
- GI50 (T-47D breast): 1.32 µM
- TGI (T-47D breast): 3.06 µM
- GI50 (TK-10 renal): 1.91 µM
- TGI (TK-10 renal): 3.68 µM
- GI50 (U251 CNS): 4.67 µM
- TGI (U251 CNS): 16 µM
- GI50 (UACC-257 melanoma): 2.24 µM
- TGI (UACC-257 melanoma): 4.82 µM
- GI50 (UACC-62 melanoma): 1.98 µM
- TGI (UACC-62 melanoma): 4.08 µM
- GI50 (UO-31 renal): 1.65 µM
- TGI (UO-31 renal): 3.11 µM

Structure (SMILES): CSc1nc(-c2ccccc2)c(C#N)c(=O)[nH]1
- TGI (786-0 renal): > 100 µM
- TGI (A498 renal): > 100 µM
- TGI (A549 NSCLC): > 100 µM
- TGI (ACHN renal): > 100 µM
- TGI (BT-549 breast): > 100 µM
- TGI (CAKI-1 renal): > 100 µM
- TGI (CCRF-CEM leukemia): > 100 µM
- TGI (COLO 205 colon): > 100 µM
- TGI (DU-145 prostate): > 100 µM
- TGI (EKVX NSCLC): > 100 µM
- TGI (HCC-2998 colon): > 100 µM
- TGI (HCT-116 colon): > 100 µM
- TGI (HCT-15 colon): > 100 µM
- TGI (HL-60(TB) leukemia): > 100 µM
- TGI (HOP-62 NSCLC): > 100 µM
- TGI (HOP-92 NSCLC): > 100 µM
- TGI (HS 578T breast): > 100 µM
- TGI (HT29 colon): > 100 µM
- TGI (IGROV1 ovarian): > 100 µM
- TGI (K-562 leukemia): > 100 µM
- TGI (KM12 colon): > 100 µM
- TGI (M14 melanoma): > 100 µM
- TGI (MCF7 breast): > 100 µM
- TGI (MDA-MB-231 breast): > 100 µM
- TGI (MDA-MB-435): > 100 µM
- TGI (MOLT-4 leukemia): > 100 µM
- TGI (NCI-H226 lung): > 100 µM
- TGI (NCI-H23 lung): > 100 µM
- TGI (NCI-H460 lung): > 100 µM
- TGI (NCI-H522 lung): > 100 µM
- TGI (NCI/ADR-RES ovarian): > 100 µM
- TGI (OVCAR-3 ovarian): > 100 µM
- TGI (OVCAR-4 ovarian): > 100 µM
- TGI (OVCAR-5 ovarian): > 100 µM
- TGI (OVCAR-8 ovarian): > 100 µM
- TGI (PC-3 prostate): > 100 µM
- TGI (RPMI-8226 leukemia): > 100 µM
- TGI (RXF 393 renal): > 100 µM
- TGI (SF-268 CNS): > 100 µM
- TGI (SF-295 CNS): > 100 µM
- TGI (SF-539 CNS): > 100 µM
- TGI (SK-MEL-2 melanoma): > 100 µM
- TGI (SK-MEL-28 melanoma): > 100 µM
- TGI (SK-MEL-5 melanoma): > 100 µM
- TGI (SK-OV-3 ovarian): > 100 µM
- TGI (SN12C renal): > 100 µM
- TGI (SNB-19 CNS): > 100 µM
- TGI (SNB-75 CNS): > 100 µM
- TGI (SW-620 colon): > 100 µM
- TGI (T-47D breast): > 100 µM
- TGI (TK-10 renal): > 100 µM
- TGI (U251 CNS): > 100 µM
- TGI (UACC-257 melanoma): > 100 µM
- TGI (UACC-62 melanoma): > 100 µM
- TGI (UO-31 renal): > 100 µM
